According to ChEMBL document CHEMBL5523679, “Discovery of 1,2,3-triazole incorporated indole-piperazines as potent antitubercular agents: Design, synthesis, in vitro biological evaluation, molecular docking and ADME studies” (Bioorg Med Chem, 2024):

Experiments:
Format in all cases: functional
Staphylococcus aureus [1] = assay: Antibacterial activity against Staphylococcus aureus assessed as inhibition zone at 25 ug/ml by diffusion method; conditions: read-out: IZ
[2] = test system: Mycobacterium tuberculosis; assay: Antimycobacterial activity against Mycobacterium tuberculosis H37Rv assessed as bacterial growth inhibition by microplate Alamar blue assay
Pseudomonas aeruginosa [3] = assay: Antibacterial activity against Pseudomonas aeruginosa assessed as inhibition zone at 75 ug/ml by diffusion method; conditions: read-out: IZ
Escherichia coli [4] = assay: Antibacterial activity against Escherichia coli assessed as inhibition zone at 50 ug/ml by diffusion method; conditions: read-out: IZ
Staphylococcus aureus [5] = assay: Antibacterial activity against Staphylococcus aureus assessed as inhibition zone at 50 ug/ml by diffusion method; conditions: read-out: IZ
Pseudomonas aeruginosa [6] = assay: Antibacterial activity against Pseudomonas aeruginosa assessed as inhibition zone at 50 ug/ml by diffusion method; conditions: read-out: IZ
Staphylococcus aureus [7] = assay: Antibacterial activity against Staphylococcus aureus assessed as inhibition zone at 75 ug/ml by diffusion method; conditions: read-out: IZ
Escherichia coli [8] = assay: Antibacterial activity against Escherichia coli assessed as inhibition zone at 75 ug/ml by diffusion method; conditions: read-out: IZ
Escherichia coli [9] = assay: Antibacterial activity against Escherichia coli assessed as inhibition zone at 25 ug/ml by diffusion method; conditions: read-out: IZ
Pseudomonas aeruginosa [10] = assay: Antibacterial activity against Pseudomonas aeruginosa assessed as inhibition zone at 25 ug/ml by diffusion method; conditions: read-out: IZ

SMILES | zone of inhibition at 25 µg/mL (Staphylococcus aureus [1]) | MIC [2] | zone of inhibition at 75 µg/mL (Pseudomonas aeruginosa [3]) | zone of inhibition at 50 µg/mL (Escherichia coli [4]) | zone of inhibition at 50 µg/mL (Staphylococcus aureus [5]) | zone of inhibition at 50 µg/mL (Pseudomonas aeruginosa [6]) | zone of inhibition at 75 µg/mL (Staphylococcus aureus [7]) | zone of inhibition at 75 µg/mL (Escherichia coli [8]) | zone of inhibition at 25 µg/mL (Escherichia coli [9]) | zone of inhibition at 25 µg/mL (Pseudomonas aeruginosa [10])
O=C(Cc1c[nH]c2ccccc12)N1CCN(C(=O)c2ccc(Cl)cc2)CC1 | 13 mm | 65.5 µM | 15 mm | 10 mm | 15 mm | 10 mm | 20 mm | 12 mm | – | –
O=C(Cc1cn(Cc2ccc(F)cc2)c2ccccc12)N1CCN(C(=O)c2ccc(Cl)cc2)CC1 | 13 mm | 25.5 µM | 13 mm | 13 mm | 18 mm | 10 mm | 23 mm | 15 mm | – | –
O=C(CCc1cn(Cc2cn(Cc3ccc(F)cc3)nn2)c2ccccc12)N1CCN(C(=O)c2ccccc2)CC1 | 13 mm | 22.7 µM | 12 mm | 15 mm | 10 mm | 10 mm | 20 mm | 18 mm | – | –
O=C(CCc1c[nH]c2ccccc12)N1CCN(C(=O)c2ccc(F)cc2)CC1 | 13 mm | 65.9 µM | 13 mm | 15 mm | 15 mm | 10 mm | 20 mm | 18 mm | – | –
O=C(CCc1c[nH]c2ccccc12)N1CCN(S(=O)(=O)c2ccccc2)CC1 | 12 mm | > 120 µM | 15 mm | 12 mm | 15 mm | 10 mm | 20 mm | 15 mm | 10 mm | –
O=C(CCc1c[nH]c2ccccc12)N1CCN(C(=O)c2ccc(Cl)cc2)CC1 | 10 mm | 63.1 µM | 12 mm | 10 mm | 15 mm | 10 mm | 20 mm | 12 mm | – | –
O=C(O)c1cn(C2CC2)c2cc(N3CCNCC3)c(F)cc2c1=O [CIPROFLOXACIN] | 18 mm | – | 21 mm | 27 mm | 21 mm | 18 mm | 26 mm | 32 mm | – | 15 mm
O=C(Cc1c[nH]c2ccccc12)N1CCN(C(=O)c2ccccc2)CC1 | 10 mm | > 120 µM | 13 mm | 9 mm | 12 mm | 9 mm | 15 mm | 12 mm | 6 mm | –
O=C(CCc1cn(Cc2ccc(F)cc2)c2ccccc12)N1CCN(S(=O)(=O)c2ccc(F)cc2)CC1 | 15 mm | 23.8 µM | 12 mm | 14 mm | 18 mm | 10 mm | 23 mm | 18 mm | – | –
Cc1ccc(S(=O)(=O)N2CCN(C(=O)CCc3cn(Cc4ccc(F)cc4)c4ccccc34)CC2)cc1 | 15 mm | 48.1 µM | 10 mm | 15 mm | 18 mm | – | 23 mm | 18 mm | – | –
Cc1ccc(C(=O)N2CCN(C(=O)Cc3c[nH]c4ccccc34)CC2)cc1 | 12 mm | > 120 µM | 10 mm | 12 mm | 13 mm | – | 15 mm | 18 mm | – | –
O=C(CCc1cn(Cc2ccc(F)cc2)c2ccccc12)N1CCN(C(=O)c2ccccc2)CC1 | 15 mm | 53.2 µM | 13 mm | 13 mm | 18 mm | 10 mm | 23 mm | 15 mm | – | –
COc1ccc(S(=O)(=O)N2CCN(C(=O)CCc3cn(Cc4cn(Cc5ccc(F)cc5)nn4)c4ccccc34)CC2)cc1 | 10 mm | 20.3 µM | 13 mm | 15 mm | 15 mm | 10 mm | 18 mm | 18 mm | – | –
Cc1ccc(S(=O)(=O)N2CCN(C(=O)Cc3cn(Cc4ccc(F)cc4)c4ccccc34)CC2)cc1 | 13 mm | 49.4 µM | 13 mm | 15 mm | 18 mm | – | 22 mm | 18 mm | – | –
O=C(Cc1cn(Cc2ccc(F)cc2)c2ccccc12)N1CCN(S(=O)(=O)c2ccc(Cl)cc2)CC1 | 15 mm | 23.8 µM | 13 mm | 15 mm | 18 mm | – | 22 mm | 18 mm | – | –
